Measurements from ChEMBL document CHEMBL4152194, “Synthesis, molecular modeling studies and evaluation of antifungal activity of a novel series of thiazole derivatives” (Eur J Med Chem, 2018).
Values after ≈ are worked out from the molar mass of the structure shown.

Legend:
[1] = test system: Cryptococcus bacillisporus; assay: Antifungal activity against Cryptococcus gattii ATCC 32608 after 72 hrs by microbroth dilution assay; type: functional; conditions: ATCC 32608, 72 h
Pichia kudriavzevii = assay: Antifungal activity against Candida krusei ATCC 20298 after 48 hrs by microbroth dilution assay; type: functional; conditions: ATCC 20298, 48 h
Candida tropicalis = assay: Antifungal activity against Candida tropicalis ATCC 750 after 48 hrs by microbroth dilution assay; type: functional; conditions: ATCC 750, 48 h
Cryptococcus neoformans = assay: Antifungal activity against Cryptococcus neoformans ATCC 24067 after 72 hrs by microbroth dilution assay; type: functional; conditions: ATCC 24067, 72 h
Candida parapsilosis = assay: Antifungal activity against Candida parapsilosis ATCC 22019 after 48 hrs by microbroth dilution assay; type: functional; conditions: Lodderomyces parapsilosis, ATCC 22019, 48 h
[2] = test system: Paracoccidioides brasiliensis; assay: Antifungal activity against Paracoccidioides brasiliensis Pb18 after 7 days by microbroth dilution assay; type: functional; conditions: 168 h
Candida albicans = assay: Antifungal activity against Candida albicans ATCC 18804 after 48 hrs by microbroth dilution assay; type: functional; conditions: ATCC 18804, 48 h
HEK293 = assay: Cytotoxicity against human HEK293 cells after 72 hrs by MTT assay; type: cell-based; conditions: HEK293, 72 h
[3] = Cytotoxicity against human HEK293 cells assessed as cell viability at 250 uM after 72 hrs by MTT assay relative to control; type: cell-based; conditions: read-out: Activity

With `C/C(=N\Nc1nc(-c2ccc(Cl)cc2)cs1)c1ccc(N)cc1` the MIC [1] was > 250 µM, the MIC (Pichia kudriavzevii) was > 250 µM and the MIC (Candida tropicalis) was > 250 µM. The MIC (Cryptococcus neoformans) was > 250 µM, the MIC (Candida parapsilosis) was > 250 µM and the MIC [2] was > 250 µM. For the same molecule, the MIC (Candida albicans) was > 250 µM.

In the case of `CC(C)(C)/C=N/Nc1nc(-c2ccccc2)cs1`, the MIC [1] is reported as 1.9 µM (≈ 0.493 µg/mL), the MIC (Pichia kudriavzevii) is reported as 5.8 µM (≈ 1.5 µg/mL) and the MIC (Candida tropicalis) is reported as 31.2 µM (≈ 8.09 µg/mL). The MIC (Cryptococcus neoformans) was 1.9 µM (≈ 0.493 µg/mL), the MIC (Candida parapsilosis) was 3.9 µM (≈ 1.01 µg/mL) and the MIC [2] was 125 µM (≈ 32.4 µg/mL). It also gave an MIC (Candida albicans) of 3.9 µM (≈ 1.01 µg/mL).

In the case of `C[C@@H]1[C@H](O)[C@@H](C)/C=C/C=C/C=C/C=C/C=C/C=C/C=C/[C@H](O[C@@H]2O[C@H](C)[C@@H](O)[C@H](N)[C@@H]2O)C[C@@H]2O[C@](O)(C[C@@H](O)C[C@@H](O)[C@H](O)CC[C@@H](O)C[C@@H](O)CC(=O)O[C@H]1C)C[C@H](O)[C@H]2C(=O)O` [AMPHOTERICIN B], the MIC [1] is reported as 0.08 µM (≈ 0.0739 µg/mL), the MIC (Pichia kudriavzevii) is reported as 0.5 µM (≈ 0.462 µg/mL) and the MIC (Candida tropicalis) is reported as 1.2 µM (≈ 1.11 µg/mL). For the same molecule, the MIC (Cryptococcus neoformans) was 0.09 µM (≈ 0.0832 µg/mL), the MIC (Candida parapsilosis) was 0.5 µM (≈ 0.462 µg/mL) and the MIC [2] was 0.06 µM (≈ 0.0554 µg/mL). The MIC (Candida albicans) was 0.3 µM (≈ 0.277 µg/mL) and the IC50 (HEK293) was 78.6 µM.

With `CCC/C(CC)=N/NC(N)=S` the MIC [1] was > 250 µM, the MIC (Pichia kudriavzevii) was > 250 µM and the MIC (Candida tropicalis) was > 250 µM. The MIC (Cryptococcus neoformans) was > 250 µM, the MIC (Candida parapsilosis) was > 250 µM and the MIC [2] was > 250 µM. For the same molecule, the MIC (Candida albicans) was > 250 µM.

In the case of `CC(C)(C)/C=N/NC(N)=S`, the MIC [1] is reported as > 250 µM, the MIC (Pichia kudriavzevii) is reported as > 250 µM and the MIC (Candida tropicalis) is reported as > 250 µM. The MIC (Cryptococcus neoformans) was > 250 µM, the MIC (Candida parapsilosis) was > 250 µM and the MIC [2] was > 250 µM. The MIC (Candida albicans) was > 250 µM.

With `Clc1ccc(-c2csc(N/N=C/C=C/c3ccccc3)n2)cc1` the MIC [1] was > 250 µM, the MIC (Pichia kudriavzevii) was > 250 µM and the MIC (Candida tropicalis) was > 250 µM. For the same molecule, the MIC (Cryptococcus neoformans) was > 250 µM, the MIC (Candida parapsilosis) was > 250 µM and the MIC [2] was > 250 µM. For the same molecule, the MIC (Candida albicans) was > 250 µM.

Work on `COc1cc(/C=C/C(C)=N/Nc2nc(-c3ccc(Cl)cc3)cs2)ccc1O` yielded an MIC [1] of 125 µM (≈ 50 µg/mL), an MIC (Pichia kudriavzevii) of 250 µM (≈ 100 µg/mL) and an MIC (Candida tropicalis) of 250 µM (≈ 100 µg/mL). The MIC (Cryptococcus neoformans) was 250 µM (≈ 100 µg/mL), the MIC (Candida parapsilosis) was 250 µM (≈ 100 µg/mL) and the MIC [2] was 62.5 µM (≈ 25 µg/mL). The MIC (Candida albicans) was 250 µM (≈ 100 µg/mL).

In the case of `COc1cc(/C=C/C(C)=N/NC(N)=S)ccc1O`, the MIC [1] is reported as > 250 µM, the MIC (Pichia kudriavzevii) is reported as > 250 µM and the MIC (Candida tropicalis) is reported as > 250 µM. For the same molecule, the MIC (Cryptococcus neoformans) was > 250 µM, the MIC (Candida parapsilosis) was > 250 µM and the MIC [2] was > 250 µM. For the same molecule, the MIC (Candida albicans) was > 250 µM.

`CCC(C)n1ncn(-c2ccc(N3CCN(c4ccc(OCC5COC(Cn6cncn6)(c6ccc(Cl)cc6Cl)O5)cc4)CC3)cc2)c1=O` (configuration not stated) [ITRACONAZOLE] gave an MIC [1] of 0.18 µM (≈ 0.127 µg/mL), an MIC (Pichia kudriavzevii) of 0.18 µM (≈ 0.127 µg/mL) and an MIC (Candida tropicalis) of 0.09 µM (≈ 0.0635 µg/mL). For the same molecule, the MIC (Cryptococcus neoformans) was 0.04 µM (≈ 0.0282 µg/mL), the MIC (Candida parapsilosis) was 0.18 µM (≈ 0.127 µg/mL) and the viability at 72 h, 250 µM [3] was 90.8%. For the same molecule, the MIC [2] was 0.06 µM (≈ 0.0423 µg/mL), the MIC (Candida albicans) was 0.7 µM (≈ 0.494 µg/mL) and the IC50 (HEK293) was > 250 µM.

Molecule `COc1cc(/C=C/C(C)=N/Nc2nc(-c3ccccc3)cs2)ccc1O` has an MIC [1] of 250 µM (≈ 91.4 µg/mL), an MIC (Pichia kudriavzevii) of 250 µM (≈ 91.4 µg/mL) and an MIC (Candida tropicalis) of 250 µM (≈ 91.4 µg/mL). For the same molecule, the MIC (Cryptococcus neoformans) was 250 µM (≈ 91.4 µg/mL), the MIC (Candida parapsilosis) was 250 µM (≈ 91.4 µg/mL) and the MIC [2] was 250 µM (≈ 91.4 µg/mL). The MIC (Candida albicans) was 250 µM (≈ 91.4 µg/mL).

Molecule `COc1ccc(-c2csc(N/N=C(C)/C=C/c3ccc(O)c(OC)c3)n2)cc1` has an MIC [1] of 250 µM (≈ 98.9 µg/mL), an MIC (Pichia kudriavzevii) of 250 µM (≈ 98.9 µg/mL) and an MIC (Candida tropicalis) of 250 µM (≈ 98.9 µg/mL). For the same molecule, the MIC (Cryptococcus neoformans) was 250 µM (≈ 98.9 µg/mL), the MIC (Candida parapsilosis) was 250 µM (≈ 98.9 µg/mL) and the MIC (Candida albicans) was 250 µM (≈ 98.9 µg/mL).

For `OC(Cn1cncn1)(Cn1cncn1)c1ccc(F)cc1F` [FLUCONAZOLE], the MIC [1] was 12.7 µM (≈ 3.89 µg/mL), the MIC (Pichia kudriavzevii) was 104 µM (≈ 32 µg/mL) and the MIC (Candida tropicalis) was 6.5 µM (≈ 1.99 µg/mL). For the same molecule, the MIC (Cryptococcus neoformans) was 6.2 µM (≈ 1.9 µg/mL), the MIC (Candida parapsilosis) was 3.2 µM (≈ 0.98 µg/mL) and the viability at 72 h, 250 µM [3] was 99.2%. The MIC (Candida albicans) was 1.6 µM (≈ 0.49 µg/mL) and the IC50 (HEK293) was > 250 µM.
